Measured values as given in patent US8048879B2, “Substituted 4,5,6,7-tetrahydro-isoxazolo[4,5-c]pyridine compounds and use thereof for producing medicaments” (Gruenenthal GmbH, priority 2005, dated 2011).

Legend:
5-HT transporter = biological target: T1, 5-HT transporter (Rattus norvegicus, UniProt P31652); test: 5-HT uptake inhibition, synaptosomes from rat brain (medulla and pons); type: biochemical
T1 construct: from tissue; host or cells: rat brain (medulla and pons), synaptosomes, P2 fraction
T1 sequence (P31652 whole entry): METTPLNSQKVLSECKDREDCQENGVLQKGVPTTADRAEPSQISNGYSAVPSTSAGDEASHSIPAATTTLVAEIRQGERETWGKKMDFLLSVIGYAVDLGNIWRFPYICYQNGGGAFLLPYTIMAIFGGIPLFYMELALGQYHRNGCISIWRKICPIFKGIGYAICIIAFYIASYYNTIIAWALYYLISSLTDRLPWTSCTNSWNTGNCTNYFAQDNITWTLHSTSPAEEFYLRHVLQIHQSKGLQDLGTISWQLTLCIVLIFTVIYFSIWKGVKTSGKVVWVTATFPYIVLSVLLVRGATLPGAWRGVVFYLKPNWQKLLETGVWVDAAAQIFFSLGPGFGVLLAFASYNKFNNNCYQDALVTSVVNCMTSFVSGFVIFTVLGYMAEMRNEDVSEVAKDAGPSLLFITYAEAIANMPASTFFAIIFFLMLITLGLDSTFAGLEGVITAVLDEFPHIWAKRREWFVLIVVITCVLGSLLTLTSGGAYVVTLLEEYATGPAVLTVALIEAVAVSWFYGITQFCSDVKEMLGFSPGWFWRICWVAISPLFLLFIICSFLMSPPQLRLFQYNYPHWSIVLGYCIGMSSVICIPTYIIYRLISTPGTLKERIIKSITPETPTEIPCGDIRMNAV
Method in brief: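 Freshly isolated rat brain synaptosomes (P2 fraction): hypothalamus for NA uptake, medulla/pons for 5-HT uptake. Uptake of [3H]-NA (7.5 min) or [3H]-5-HT (5 min) at room temperature under O2, stopped by filtration over GF/B. Retained radioactivity counted by scintillation.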

NA transporter = biological target: T2, NA transporter (Rattus norvegicus, UniProt Q9WTR4); test: Noradrenalin (NA) uptake inhibition, synaptosomes from rat brain (hypothalamus); type: biochemical
T2 construct: from tissue; host or cells: rat brain (hypothalamus), synaptosomes, P2 fraction
T2 sequence (Q9WTR4 1-597): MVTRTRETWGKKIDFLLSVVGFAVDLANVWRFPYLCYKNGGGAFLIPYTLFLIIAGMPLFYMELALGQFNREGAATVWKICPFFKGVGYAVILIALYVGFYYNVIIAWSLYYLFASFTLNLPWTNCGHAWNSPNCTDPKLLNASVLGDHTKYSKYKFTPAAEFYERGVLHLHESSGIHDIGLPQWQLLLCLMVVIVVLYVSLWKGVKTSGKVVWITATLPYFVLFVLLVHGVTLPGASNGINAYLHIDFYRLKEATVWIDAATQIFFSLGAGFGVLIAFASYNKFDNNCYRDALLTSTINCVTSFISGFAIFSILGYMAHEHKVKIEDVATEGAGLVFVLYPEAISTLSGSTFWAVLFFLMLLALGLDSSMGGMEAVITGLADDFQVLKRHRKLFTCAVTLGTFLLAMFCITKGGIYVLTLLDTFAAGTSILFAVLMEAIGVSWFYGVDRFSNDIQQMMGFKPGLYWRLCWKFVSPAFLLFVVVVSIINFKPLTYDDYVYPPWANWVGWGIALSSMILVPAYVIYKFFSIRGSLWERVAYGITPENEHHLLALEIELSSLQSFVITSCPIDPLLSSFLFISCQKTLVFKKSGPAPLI
Excerpt: b) Method for Determining Noradrenalin and 5-HT Uptake Inhibition:
Synaptosomes from rat brain regions are freshly isolated for in vitro studies, as described in the publication “The isolation of nerve endings from brain” by E. G. Gray and V. P. Whittaker, J. Anatomy 96, pages 79-88, 1962. The corresponding literature description is hereby introduced as a reference and is deemed to be part of the disclosure.
The tissue (hypothalamus for the determination of noradrenalin uptake inhibition and medulla and pons for the determination of 5-HT uptake inhibition) is homogenised in ice-cooled 0.32 M sucrose (100 mg of tissue/1 mL) in a glass homogeniser with Teflon pestle using five complete up and down strokes at 840 revolutions/minute.
The homogenate is centrifuged at 4° C. for 10 minutes at 1000 g. After subsequent centrifugation at 17000 g for 55 minutes, the synaptosomes (P2 fraction) are obtained, which are resuspended in 0.32 M […] (0.5 mL/100 mg of original weight).
The particular uptake is measured in a 96-well microtitre plate. The volume is 250 μL and the incubation proceeds at room temperature (approx. 20-25° C.) under an O2 atmosphere.
The incubation time is 7.5 minutes for [^3H]-NA and 5 minutes for [^3H]-5-HT. The 96 samples are then filtered through a Unifilter GF/B® microtitre plate (Packard) and washed with 200 mL of incubated buffer using a “Brabdel MPXRI-96T Cell-Harvester”. The Unifilter GF/B plate is dried for 1 hour at 55° C. The plate is then sealed with a Back Seal® (Packard) and 35 μL of scintillation fluid are added per well (Ultima Gold®, Packard). After sealing with a top Seal® (Packard) and establishing an equilibrium (around 5 hours), radioactivity is determined in a “Trilux 1450 Microbeta” (Wallac).
The quantity of protein used in the above determination corresponds to the values known from the literature, as for example described in “Protein measurement with the folin phenol reagent”, Lowry et al., J. Biol. Chem., 193, 265-275, 1951.
A detailed description of the method may additionally be found in the literature, for example in M. Ch. Frink, H.-H. Hennies, W. Engelberger, M. Haurand and B. Wilffert (1996) Arzneim.-Forsch./Drug Res. 46 (III), 11, 1029-1036.
The following characteristics were determined for the NA or 5-HT transporter: […]

SMILES	5-HT uptake (rat), 10 μM, % inhibition (5-HT transporter) [%]	NA Uptake (rat), 10 μM, % inhibition (NA transporter) [%]	inhibition at 10 µM (5-HT transporter) [%]	inhibition at 10 µM (NA transporter) [%]
Cc1ccc(NC(=O)N2CCc3onc(C(=O)NCCc4ccccc4)c3C2)cc1[N+](=O)[O-] [Example 4, 6,7-dihydro-4H-isoxazolo[4,5-c]pyridine-3,5-dicarboxylic acid 5-[(4-methyl-3-nitro-phenyl) amide] 3-(phenethyl amide)]	45	57	–	–
O=C(NCCc1ccccc1)c1noc2c1CN(C(=O)Nc1cccc(F)c1)CC2 [Example 8, 6,7-dihydro-4H-isoxazolo[4,5-c]pyridine-3,5-dicarboxylic acid 5-[(3-fluorophenyl) amide] 3-(phenethyl amide)]	54	66	–	–
O=C(NCc1ccccc1)c1noc2c1CN(C(=O)NCCc1ccccc1)CC2 [Example 10, 6,7-dihydro-4H-isoxazolo[4,5-c]pyridine-3,5-dicarboxylic acid 3-benzyl amide 5-(phenethyl amide)]	51	42	–	–
N#Cc1cccc(NC(=O)N2CCc3onc(C(=O)NCc4cccs4)c3C2)c1 [Example 12, 6,7-dihydro-4H-isoxazolo[4,5-c]pyridine-3,5-dicarboxylic acid 5-[(3-cyano-phenyl) amide]3-[(thiophen-2-ylmethyl) amide]]	51	46	–	–
CCOc1ccc(NC(=O)N2CCc3onc(C(=O)Nc4ccccc4)c3C2)cc1 [Example 13, 6,7-dihydro-4H-isoxazolo[4,5-c]pyridine-3,5-dicarboxylic acid 5-[(4-ethoxy-phenyl) amide] 3-phenyl amide]	48	51	–	–
CC(NC(=O)N1CCc2onc(C(=O)NCCc3ccccc3)c2C1)c1cccc2ccccc12 (centres unmarked) [Example 18, 6,7-dihydro-4H-isoxazolo[4,5-c]pyridine-3,5-dicarboxylic acid 5-[(1-naphthalen-1-yl-ethyl) amide]3-(phenethyl amide)]	42	47	–	–
O=C(O)CC1(CC(=O)N2CCc3onc(C(=O)Nc4ccccc4)c3C2)CCCC1 [Example 28, {1-[2-oxo-2-(3-phenylcarbamoyl-6,7-dihydro-4H-isoxazolo[4,5-c]pyridin-5-yl)-ethyl]-cyclopentyl}acetic acid]	–	–	55	44
O=C(NC1CCN(Cc2ccc3ccccc3c2)C1)c1noc2c1CN(S(=O)(=O)c1ccccc1)CC2 (centres unmarked) [Example 33, 5-benzenesulfonyl-4,5,6,7-tetrahydro-isoxazolo[4,5-c]pyridine-3-carboxylic acid (1-naphthalen-2-ylmethyl-pyrrolidin-3-yl) amide]	–	–	74	88
COc1ccc(CNC(=O)c2noc3c2CN(S(=O)(=O)c2ccccc2)CC3)cc1OC [Example 47, 5-benzenesulfonyl-4,5,6,7-tetrahydro-isoxazolo[4,5-c]pyridine-3-carboxylic acid 3,4-dimethoxy-benzyl amide]	–	–	68	67
O=C(c1noc2c1CN(S(=O)(=O)c1cc(Cl)ccc1Cl)CC2)N(CCc1ccccc1)Cc1ccccc1 [Example 59, 5-(2,5-dichloro-benzenesulfonyl)-4,5,6,7-tetrahydro-isoxazolo[4,5-c]pyridine-3-carboxylic acid benzyl-phenethyl amide]	–	–	71	79
O=C(c1noc2c1CN(S(=O)(=O)c1cccc(C(F)(F)F)c1)CC2)N(CCc1ccccc1)Cc1ccccc1 [Example 68, 5-(3-trifluoromethyl-benzenesulfonyl)-4,5,6,7-tetrahydro-isoxazolo[4,5-c]pyridine-3-carboxylic acid benzyl-phenethyl amide]	–	–	63	84
O=C(c1noc2c1CN(S(=O)(=O)c1ccccc1)CC2)N1CCN(CC=Cc2ccccc2)CC1 [Example 97, (5-benzenesulfonyl-4,5,6,7-tetrahydro-isoxazolo[4,5-c]pyridin-3-yl)-[4-(3-phenyl-allyl)-piperazin-1-yl]-methanone]	–	–	67	75
O=C(NC1CCN(Cc2ccccc2)C1)c1noc2c1CN(S(=O)(=O)c1ccc(OC(F)(F)F)cc1)CC2 (centres unmarked) [Example 117, 5-(4-trifluoromethoxy-benzenesulfonyl)-4,5,6,7-tetrahydro-isoxazolo[4,5-c]pyridine-3-carboxylic acid (1-benzyl-pyrrolidin-3-yl)-amide]	–	–	68	75
Cc1ccc(S(=O)(=O)N2CCc3onc(C(=O)NC(C)C(=O)OC(C)(C)C)c3C2)cc1 (centres unmarked) [Example 120, 2-{[5-(toluene-4-sulfonyl)-4,5,6,7-tetrahydro-isoxazolo[4,5-c]pyridine-3-carbonyl]-amino}-propionic acid tert-butyl ester]	–	–	–	62
CCOC(=O)CCNC(=O)c1noc2c1CN(S(=O)(=O)c1ccc(Cl)cc1)CC2 [Example 121, 3-{[5-(4-chloro-benzenesulfonyl)-4,5,6,7-tetrahydro-isoxazolo[4,5-c]pyridine-3-carbonyl]-amino}-propionic acid ethyl ester]	–	–	–	61
CN(C)S(=O)(=O)N1CCc2onc(C(=O)NCCc3ccc(Cl)c(Cl)c3)c2C1 [Example 122, 5-dimethylsulfamoyl-4,5,6,7-tetrahydro-isoxazolo[4,5-c]pyridine-3-carboxylic acid [2-(3,4-dichloro-phenyl)-ethyl] amide]	–	–	–	63
CCOC(=O)CCNC(=O)c1noc2c1CN(C(=O)Cc1ccc3ccccc3c1)CC2 [Example 125, 3-{[5-(2-naphthalen-2-yl-acetyl)-4,5,6,7-tetrahydro-isoxazolo[4,5-c]pyridine-3-carbonyl]-amino}-propionic acid ethyl ester]	–	–	–	63
COc1ccc(CNC(=S)N2CCc3onc(C(=O)NC4CCCC4)c3C2)cc1 [Example 127, 5-(4-methoxy-benzylthiocarbamoyl)-4,5,6,7-tetrahydro-isoxazolo[4,5-c]pyridine-3-carboxylic acid cyclopentyl amide]	–	–	–	63
COCCNC(=S)N1CCc2onc(C(=O)NCCc3ccccc3)c2C1 [Example 130, 5-(2-methoxy-ethylthiocarbamoyl)-4,5,6,7-tetrahydro-isoxazolo[4,5-c]pyridine-3-carboxylic acid phenethyl amide]	–	–	–	67
O=C(NCCc1ccccc1)c1noc2c1CN(C(=S)Nc1c(F)c(F)c(F)c(F)c1F)CC2 [Example 131, 5-pentafluorophenylthiocarbamoyl-4,5,6,7-tetrahydro-isoxazolo[4,5-c]pyridine-3-carboxylic acid phenethyl amide]	–	73	–	–
CC(NC(=S)N1CCc2onc(C(=O)NCCc3ccccc3)c2C1)c1ccccc1 (centres unmarked) [Example 132, 5-(1-phenyl-ethylthiocarbamoyl)-4,5,6,7-tetrahydro-isoxazolo[4,5-c]pyridine-3-carboxylic acid phenethyl amide]	–	–	–	76
O=C(Nc1ccccc1)c1noc2c1CN(Cc1ccc3ccccc3c1Br)CC2 [Example 135, 5-(1-bromo-naphthalen-2-ylmethyl)-4,5,6,7-tetrahydro-isoxazolo[4,5-c]pyridine-3-carboxylic acid phenyl amide]	–	–	–	60
O=C(c1noc2c1CN(S(=O)(=O)c1ccc(Cl)c(Cl)c1)CC2)N1CCN(c2nccs2)CC1 [Example 140, (5-(3,4-dichlorophenylsulfonyl)-4,5,6,7-tetrahydroisoxazolo[4,5-c]pyridin-3-yl)(4-(thiazol-2-yl)piperazin-1-yl)methanone]	–	–	47	46
Cc1cc(C)c(S(=O)(=O)N2CCc3onc(C(=O)N4CCN(c5nccs5)CC4)c3C2)c(C)c1 [Example 141, (5-(mesitylsulfonyl)-4,5,6,7-tetrahydroisoxazolo[4,5-c]pyridin-3-yl)(4-(thiazol-2-yl)piperazin-1-yl)methanone]	–	–	58	41
O=C(c1noc2c1CN(S(=O)(=O)c1cccc3ccccc13)CC2)N1CCN(c2nccs2)CC1 [Example 142, (5-(naphthalen-1-ylsulfonyl)-4,5,6,7-tetrahydroisoxazolo[4,5-c]pyridin-3-yl)(4-(thiazol-2-yl)piperazin-1-yl)methanone]	–	–	30	31
